Laboratory results published in article doi:10.1101/2022.03.02.482641v1 (biorxiv, 2022).

Tests used:
Format in all cases: biochemical
[1] = biological target: T1, hSARM1 (hSARM1 w.t., near-intact, 26ERL...GPT724) (Homo sapiens, UniProt Q6SZW1); assay: HPLC of ADPR formation
T1 sequence (Q6SZW1 26-724): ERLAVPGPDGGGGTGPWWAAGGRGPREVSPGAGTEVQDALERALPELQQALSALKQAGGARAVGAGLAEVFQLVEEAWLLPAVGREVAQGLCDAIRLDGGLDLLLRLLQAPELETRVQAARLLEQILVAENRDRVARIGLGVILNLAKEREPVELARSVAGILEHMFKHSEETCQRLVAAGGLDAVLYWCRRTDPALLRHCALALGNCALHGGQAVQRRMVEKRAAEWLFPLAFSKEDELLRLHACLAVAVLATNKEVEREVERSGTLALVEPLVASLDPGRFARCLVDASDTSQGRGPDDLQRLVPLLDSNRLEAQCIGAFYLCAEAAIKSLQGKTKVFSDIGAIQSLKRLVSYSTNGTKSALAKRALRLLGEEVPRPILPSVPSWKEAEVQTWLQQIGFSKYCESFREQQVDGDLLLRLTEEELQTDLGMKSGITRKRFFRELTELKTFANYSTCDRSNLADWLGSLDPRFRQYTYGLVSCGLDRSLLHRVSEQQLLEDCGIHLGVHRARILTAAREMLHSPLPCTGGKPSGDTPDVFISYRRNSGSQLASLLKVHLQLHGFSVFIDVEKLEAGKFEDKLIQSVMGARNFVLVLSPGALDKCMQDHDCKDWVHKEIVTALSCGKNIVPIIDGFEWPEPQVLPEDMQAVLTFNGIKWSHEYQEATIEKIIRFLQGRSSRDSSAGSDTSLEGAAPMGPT

[2] = biological target: T2, zfSARM1 (zebrafish SARM1, zfSARM1 w.t.) (Danio rerio, UniProt F1QWA8); assay: NADase kinetics, HPLC, substrate inhibition fit; details: apparent substrate inhibition by NAD+
T2 sequence (F1QWA8 22-713): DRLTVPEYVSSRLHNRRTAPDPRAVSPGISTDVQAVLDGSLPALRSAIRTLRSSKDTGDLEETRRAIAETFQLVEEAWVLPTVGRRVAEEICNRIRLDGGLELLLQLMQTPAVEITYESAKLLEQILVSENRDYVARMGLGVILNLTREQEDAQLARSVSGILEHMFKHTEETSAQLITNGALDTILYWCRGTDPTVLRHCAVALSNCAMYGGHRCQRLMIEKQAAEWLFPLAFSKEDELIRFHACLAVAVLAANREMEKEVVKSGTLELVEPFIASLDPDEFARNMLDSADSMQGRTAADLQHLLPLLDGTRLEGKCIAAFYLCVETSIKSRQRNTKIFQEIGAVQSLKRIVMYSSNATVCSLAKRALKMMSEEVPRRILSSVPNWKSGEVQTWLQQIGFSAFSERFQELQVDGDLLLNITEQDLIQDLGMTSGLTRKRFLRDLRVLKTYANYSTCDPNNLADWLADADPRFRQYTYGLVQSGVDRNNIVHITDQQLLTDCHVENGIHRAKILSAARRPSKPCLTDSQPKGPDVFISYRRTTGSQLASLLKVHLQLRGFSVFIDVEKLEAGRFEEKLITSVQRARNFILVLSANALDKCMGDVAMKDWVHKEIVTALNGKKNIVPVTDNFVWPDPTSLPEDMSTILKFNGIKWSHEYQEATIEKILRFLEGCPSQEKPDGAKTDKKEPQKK

[3] = biological target: T1, hSARM1 (hSARM1 w.t., near-intact, 26ERL...GPT724); assay: NADase kinetics, HPLC, substrate inhibition fit; details: apparent substrate inhibition by NAD+
[4] = biological target: T2, zfSARM1 (zebrafish SARM1, zfSARM1 w.t.); assay: HPLC of ADPR formation

SMILES | IC50 [1] [µM] | Ki [2] [µM] | Ki [3] [µM] | EC50 [4] [µM]
CCOC(=O)Cn1sc2nc(C)cc(C)c2c1=O [TK142] | 1.8 |  |  | 
NC(=O)c1ccc[n+]([C@@H]2O[C@H](COP(=O)([O-])OP(=O)(O)OC[C@H]3O[C@@H](n4cnc5c(N)ncnc54)[C@H](O)[C@@H]3O)[C@@H](O)[C@H]2O)c1 [NAD+] |  | 1350 | 727 | 
N#Cc1c(O)nsc1Nc1ccccc1C(F)(F)F [TK138] | 2.9 |  |  | 2.7

The next lines start with the values.

IC50 [1] [µM] | Ki [2] [µM] | Ki [3] [µM] | EC50 [4] [µM] | SMILES
4.6 |  |  |  | Cn1c(=O)c(I)c(O)c2ccccc21 [TK210]
3.2 |  |  |  | O=c1[nH]sc2ccccc12 [TK222]
